What all share (format): biochemical
The target in assay [1] is T1, NagA2 fused to the C. glutamicum PhoD signal peptide (PhoD-nagA2) (Corynebacterium glutamicum, UniProt Q8NLT5).
T1 construct: gene Cgl2852; native signal peptide replaced by TAT signal peptide of PhoD (cg2485), expected to be cleaved on export; pEKEx3 in C. glutamicum; culture supernatant, not purified
Kind of assay: p-nitrophenol release at […] nm, Eadie-Hofstee plot. The note with it: 100 mM phosphate pH 7.0; culture supernatant of overexpressing C. glutamicum.

Assay [2] deals with T2, NagA2 lacking its own signal peptide (SP-less-nagA2) (Corynebacterium glutamicum, UniProt Q8NLT5).
T2 construct: gene Cgl2852; predicted native signal peptide removed; overexpressed from pEKEx3 in C. glutamicum; cell extract, not purified
T2 sequence (Q8NLT5 entry or part of it): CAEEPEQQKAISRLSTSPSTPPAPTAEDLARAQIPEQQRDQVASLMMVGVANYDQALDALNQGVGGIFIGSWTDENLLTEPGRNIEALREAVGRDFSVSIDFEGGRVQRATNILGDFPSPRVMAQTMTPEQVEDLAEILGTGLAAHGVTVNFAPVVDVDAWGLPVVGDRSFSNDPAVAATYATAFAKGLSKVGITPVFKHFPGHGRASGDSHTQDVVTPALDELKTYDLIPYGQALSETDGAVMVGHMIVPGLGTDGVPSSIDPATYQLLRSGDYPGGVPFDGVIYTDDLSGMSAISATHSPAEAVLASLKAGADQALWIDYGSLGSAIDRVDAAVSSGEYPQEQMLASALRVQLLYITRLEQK
Kind of assay: p-nitrophenol release at […] nm, Eadie-Hofstee plot. The note with it: 100 mM phosphate pH 7.0; cell extract fraction of overexpressing C. glutamicum.

The next assay has as its target T3, ChiB (Serratia marcescens, UniProt P11797).
T3 construct: native form or fused to TAT signal peptide of Cg0955 (SP0955); pEKEx3 in C. glutamicum; cell extract and supernatant, not purified
T3 sequence (P11797 1-499 limits assumed): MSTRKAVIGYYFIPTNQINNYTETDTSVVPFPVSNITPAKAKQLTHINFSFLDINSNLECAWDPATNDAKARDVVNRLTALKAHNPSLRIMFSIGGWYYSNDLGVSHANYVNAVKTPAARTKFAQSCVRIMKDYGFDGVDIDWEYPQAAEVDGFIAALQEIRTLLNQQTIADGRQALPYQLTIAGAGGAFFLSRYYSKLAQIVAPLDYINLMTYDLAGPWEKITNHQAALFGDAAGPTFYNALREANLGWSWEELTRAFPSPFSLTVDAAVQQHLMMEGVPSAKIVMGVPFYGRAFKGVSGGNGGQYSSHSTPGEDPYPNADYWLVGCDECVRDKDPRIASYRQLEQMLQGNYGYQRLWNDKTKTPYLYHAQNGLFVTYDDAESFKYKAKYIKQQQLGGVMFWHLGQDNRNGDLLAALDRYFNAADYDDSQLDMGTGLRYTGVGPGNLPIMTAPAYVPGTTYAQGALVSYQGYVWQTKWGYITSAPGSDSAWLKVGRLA
Kind of assay: p-nitrophenol release at […] nm. The note with it: 100 mM phosphate pH 7.0; cell extract and supernatant of overexpressing C. glutamicum; turnover only.

Another assay has as its target T4, NagZ (Bacillus subtilis, UniProt P40406).
T4 construct: codon-optimized synthetic gene in pEKEx3, overexpressed in C. glutamicum; cell extract, not purified
T4 sequence (P40406 17-642): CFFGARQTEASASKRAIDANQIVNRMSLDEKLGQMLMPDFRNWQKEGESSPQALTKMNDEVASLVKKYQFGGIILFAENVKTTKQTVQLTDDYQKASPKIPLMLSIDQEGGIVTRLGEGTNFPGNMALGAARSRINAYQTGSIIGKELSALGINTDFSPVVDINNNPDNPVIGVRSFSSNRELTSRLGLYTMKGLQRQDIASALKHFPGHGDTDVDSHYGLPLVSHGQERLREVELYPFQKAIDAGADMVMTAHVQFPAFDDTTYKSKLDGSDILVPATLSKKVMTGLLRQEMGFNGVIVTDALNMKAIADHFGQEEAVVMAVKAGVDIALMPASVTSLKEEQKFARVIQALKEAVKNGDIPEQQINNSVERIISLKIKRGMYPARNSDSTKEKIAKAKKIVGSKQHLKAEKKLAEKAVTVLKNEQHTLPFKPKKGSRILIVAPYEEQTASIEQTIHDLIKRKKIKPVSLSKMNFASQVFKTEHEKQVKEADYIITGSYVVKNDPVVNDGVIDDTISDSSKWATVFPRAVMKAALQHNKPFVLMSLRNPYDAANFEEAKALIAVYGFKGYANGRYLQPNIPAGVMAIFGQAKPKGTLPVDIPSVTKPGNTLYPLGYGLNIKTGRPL
Kind of assay: p-nitrophenol release at […] nm. The note with it: 100 mM phosphate pH 7.0; cell extract of overexpressing C. glutamicum; turnover only.

T1 sequence (Q8NLT5 entry or part of it): as the sequence (Q8NLT5 entry or part of it) above

As usually defined, the Km is the concentration of substrate that gives half-maximal velocity. Take `CC(=O)N[C@H]1[C@H](Oc2ccc([N+](=O)[O-])cc2)O[C@H](CO)[C@@H](O[C@@H]2O[C@H](CO)[C@@H](O)[C@H](O)[C@H]2NC(C)=O)[C@@H]1O` [4-nitrophenyl N,N’-diacetyl-β-D-chitobioside]: the Km in assay [1] stood at 270 ± 66 µM; in assay [2], 266 ± 37 µM. Also, the “p-nitrophenol release at 405 nm” value at ChiB is recorded as “chitinase activity was quantified by measuring the hydrolysis of p-nitrophenol from 4-Nitrophenyl N,N’-diacetyl-β-D-chitobioside”.

Regarding `CC(=O)N[C@H]1[C@H](Oc2ccc([N+](=O)[O-])cc2)O[C@H](CO)[C@@H](O)[C@@H]1O` [4-Nitrophenyl N-acetyl-β-D-glucosaminide], the “p-nitrophenol release at 405 nm” value on NagZ is listed as “NagZ produced in C. glutamicum led to an intracellular specific activity of N-acetylglucosaminidase”.

Values taken from PMC4974736, “Corynebacterium glutamicum possesses β-N-acetylglucosaminidase” (BMC Microbiology, 2016).
